Columns and labels:
[1] = test system: circulating tumor cells derived from patients with small cell lung cancer; assay: CellTiter Luminescent cell viability of expanded circulating tumor cells treated with drugs; format: cell-based, human; conditions: expanded circulating tumor cells from the second small cell lung cancer patient; FIG. 55; result in words
Method: In some embodiments, the preparation of the cell solution can be performed as follows. 5 ml of blood is sampled respectively patients having breast cancer, pancreatic cancer, and small cell lung cancer. 15 ml of Ficoll-Paque is added to a Leucosep™ centrifuge tube and centrifuged. The blood is diluted in phosphate buffered saline (PBS) and transferred to the Leucosep™ centrifuge tube, followed by centrifugation. After centrifugation, the supernatant in the Leucosep™ centrifuge tube is removed, and the retained lower solution is a monocyte phase. A circulating tumor cell enriched antibody mixture (RosetteSep™ CTC Enrichment Cocktail Containing AntiCD56) is added to the monocyte phase, and mixed at room temperature. After mixing, a PBS buffer containing 2% (v/v) Fetal Bovine Serum (FSB) is added and mixed to give a monocyte solution. Also, the monocyte solution is added to Ficoll-Paque and centrifuged at room temperature. […]
According to the above procedure, the circulating tumor cells 21 are isolated from the blood of two patients with small cell lung cancer and cultured. […] The cell viability was measured by CellTiter Luminescent cell viability and the survival rate is calculated by the following formula:
Cell survival rate (%)=(luminescence density in the treated group/luminescence density in the control group)×100%. […]

small cell lung cancer = assay: Clinical treatment outcome of the patients the circulating tumor cells were taken from; format: in vivo, human; conditions: treated clinically
Text: As can be known from FIG. 54, in the presence of cisplatin, etoposide, and Topotecan, the survival rate of the circulating tumor cells 21 derived the blood of the first patient is more than 85%, and there is no significant decrease compared with the control group Ctrl.
As can be known from FIG. 55, in the presence of cisplatin and topotecan, the survival rate of the expanded circulating tumor cells 21 from the second patient is less than 20%, and there is significant decrease compared with the control group Ctrl. […] In combination with the outcome where the patient is treated with cisplatin, etoposide, and Topotecan clinically, it can be further confirmed that the cisplatin and topotecan respond well to small cell lung cancer in the second patients, that is, have therapeutic effect.

For COc1cc([C@@H]2c3cc4c(cc3[C@@H](O[C@@H]3O[C@@H]5CO[C@@H](C)O[C@H]5[C@H](O)[C@H]3O)[C@H]3COC(=O)[C@H]23)OCO4)cc(OC)c1O [etoposide], the “Cell survival rate compared with control group” value [1] was “lower than the control group Ctrl” and the “Clinical therapeutic effect on small cell lung cancer” value (“Clinical therapeutic effect” below) (small cell lung cancer; first patient) was “no significant therapeutic effect”.
In the case of N.N.[Cl][Pt][Cl] [cisplatin], the “Clinical therapeutic effect” value (small cell lung cancer; first patient) is reported as “no significant therapeutic effect” and the “Clinical therapeutic effect” value (small cell lung cancer; second patient) is reported as “respond well”.
With CC[C@@]1(O)C(=O)OCc2c1cc1n(c2=O)Cc2cc3c(CN(C)C)c(O)ccc3nc2-1 [Topotecan] the “Clinical therapeutic effect” value (small cell lung cancer; first patient) was “no significant therapeutic effect” and the “Clinical therapeutic effect” value (small cell lung cancer; second patient) was “respond well”.

— US20190300832A1, “METHOD AND KIT FOR EXPANDING CIRCULATING TUMOR CELLS IN VITRO” (Taipei Medical University, priority 2018, published 2019)
